Experimental data: US20260366053A1, “SYNTHESIS OF COTYLENIN AND ANALOGS THEREOF FOR THE DEVELOPMENT OF SELECTIVE MODULATORS OF 14-3-3 PROTEIN-PROTEIN INTERACTION” (priority 2022, published 2026)
“Also recorded” adds a separate entry of the source.

What was measured:
[1] = system: 14-3-3 PPI; conditions: cited from earlier work
[2] = system: 14-3-3 proteins and their clients; conditions: cited from earlier work
[3] = system: human myeloid leukemia cells; conditions: listed as cotylenol; cited from earlier work
[4] = system: 14-3-3sigma and the C-terminal of TASK-3; conditions: structural; listed as cotylenol; cited from earlier work
[5] = molecular target: P450BM3 variant MERO1 L75A (Priestia megaterium, UniProt P14779, A185V/A291V/A83G/E253G/F206C/F88V/H237Q/L354V/L76A/P143S/R256S/S227R/T176I/V79A); conditions: role: substrate; cofactor Na2NADP 0.2 eq.; lysate, 22 °C, 16 h, pH 8.0
[6] = molecular target: P450BM3 variant MERO1 FT (MERO1 L181F V184T) (Priestia megaterium, UniProt P14779, A185T/A291V/A83G/E253G/F206C/F88V/H237Q/L182F/L354V/P143S/R256S/S227R/T176I/V79A); conditions: role: substrate; cofactor Na2NADP 0.2 eq.; lysate, 22 °C, 16 h, pH 8.0
[7] = molecular target: Bsc9 “VR” (Alternaria brassicicola, UniProt D7UTD1, DEL103-114/G116R/H115V); conditions: role: substrate
[8] = molecular target: Wild-type Bsc9 (Alternaria brassicicola, UniProt D7UTD1); format: biochemical; conditions: for conversion: pH 8.5
[9] = molecular target: BscD (Pseudocercospora fijiensis, UniProt M2ZB93); conditions: role: substrate; E. coli lysates
Excerpt: The biocatalytic use of BscD and Bsc9 was investigated for the oxidation of 20.

[10] = system: MoBsc9; format: biochemical, Magnaporthe oryzae; conditions: for conversion: role: substrate, cosubstrate α-ketoglutarate, 1 mg scale, clarified lysate, 15 °C, 10 h, pH 8.5

Sequence of P450BM3 variant MERO1 L75A (P14779 whole entry L76A/V79A/A83G/F88V/P143S/T176I/A185V/F206C/S227R/H237Q/E253G/R256S/A291V/L354V): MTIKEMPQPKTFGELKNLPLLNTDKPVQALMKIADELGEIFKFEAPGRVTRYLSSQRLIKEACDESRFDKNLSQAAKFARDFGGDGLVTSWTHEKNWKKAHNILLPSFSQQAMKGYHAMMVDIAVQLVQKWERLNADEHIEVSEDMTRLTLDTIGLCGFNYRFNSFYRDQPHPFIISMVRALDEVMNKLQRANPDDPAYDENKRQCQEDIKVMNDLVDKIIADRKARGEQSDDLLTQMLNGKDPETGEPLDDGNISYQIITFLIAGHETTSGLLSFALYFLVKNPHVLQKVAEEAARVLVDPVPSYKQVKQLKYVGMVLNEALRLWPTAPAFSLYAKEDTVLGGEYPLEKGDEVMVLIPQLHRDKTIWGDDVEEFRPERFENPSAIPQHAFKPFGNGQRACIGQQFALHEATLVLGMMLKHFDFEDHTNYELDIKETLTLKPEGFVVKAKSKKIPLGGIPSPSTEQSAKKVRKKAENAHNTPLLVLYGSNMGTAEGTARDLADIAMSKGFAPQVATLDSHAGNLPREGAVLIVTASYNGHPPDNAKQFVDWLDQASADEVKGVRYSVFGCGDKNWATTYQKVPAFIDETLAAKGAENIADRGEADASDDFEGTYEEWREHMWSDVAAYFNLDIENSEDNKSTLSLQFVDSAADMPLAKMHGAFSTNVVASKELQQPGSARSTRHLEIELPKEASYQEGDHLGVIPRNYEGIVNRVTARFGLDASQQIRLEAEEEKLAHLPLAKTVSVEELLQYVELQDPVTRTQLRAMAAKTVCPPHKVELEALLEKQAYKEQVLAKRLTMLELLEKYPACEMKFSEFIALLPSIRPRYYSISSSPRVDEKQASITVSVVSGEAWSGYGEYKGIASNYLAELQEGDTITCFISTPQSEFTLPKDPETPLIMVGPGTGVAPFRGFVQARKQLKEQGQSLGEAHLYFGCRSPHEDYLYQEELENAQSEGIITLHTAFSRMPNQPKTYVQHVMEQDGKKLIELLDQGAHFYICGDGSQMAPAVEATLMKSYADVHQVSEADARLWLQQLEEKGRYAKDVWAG
Sequence of P450BM3 variant MERO1 FT (MERO1 L181F V184T) (P14779 whole entry V79A/A83G/F88V/P143S/T176I/L182F/A185T/F206C/S227R/H237Q/E253G/R256S/A291V/L354V): as the sequence (P14779 whole entry L76A/V79A/A83G/F88V/P143S/T176I/A185V/F206C/S227R/H237Q/E253G/R256S/A291V/L354V) above, with A76L, L182F, V185T counted along it

C=CC(C)(C)OC[C@H]1O[C@H](O[C@@H]2C3=C([C@H](C)COC(C)=O)C[C@H](O)[C@]3(C)/C=C3/[C@@H](COC)CC[C@H]3[C@@H](C)[C@H]2O)[C@H](O)[C@@H](OC(C)=O)[C@@H]1O [Compound 2]
phytotoxicity [1]: phytotoxins that target the 14-3-3 PPI
molecular glue activity [2]: capable of acting as molecular glues

COC[C@@]1(O)CC[C@@H]2/C1=C\[C@@]1(C)CCC(C(C)C)=C1[C@@H](O)[C@H](O)[C@@H]2C [Compound 3]
cytotoxicity [3]: cytotoxic toward human myeloid leukemia cells; also recorded: moderate cytotoxicity on human myeloid leukemia cells
ternary complex formation [4]: form a ternary complex with 14-3-3sigma and the C-terminal of TASK-3; also recorded: a crystal structure of cotylenol in complex with 14-3-3s and a synthetic C-terminal hexapeptide of TASK-3 has also been solved

COC[C@@]1(O)CC[C@@H]2/C1=C\[C@@]1(C)CCC(C(C)C)=C1C[C@H](O)[C@@H]2C [Compound 4]
regioselectivity of hydroxylation at C13 [5]: without any observable regioisomers

COCC1=C2C[C@@]3(C)CCC(C(C)C)=C3CC(=O)[C@H](C)[C@@H]2CC1 [Compound 8]
regioselectivity of oxidation [6]: primarily at C4

COCC1=C2C[C@@]3(C)CCC(C(C)C)=C3[C@@H](O)C(=O)[C@H](C)[C@@H]2CC1 [Compound 20]
reaction (in words) [7]: no reaction
conversion (in words) [8]: moderate conversion
conversion [8]: 43%
reaction (in words) [9]: no reaction
conversion [10]: 100%

COC[C@@]1(O)CC[C@@H]2/C1=C\[C@@]1(C)CCC(C(C)C)=C1[C@@H](O)C(=O)[C@@H]2C [Compound 21]
improvement in assay yield of 21 ([10]; role: product, relative to Bsc9): ca. two-fold

CC(C)C1=C2[C@@H](O)C(=O)[C@H](C)[C@@H]3CCC(=O)/C3=C/[C@@]2(C)CC1 [Compound 22]
conversion (in words) [8]: no further conversion

COCC1=C2C[C@@]3(C)CCC(C(C)C)=C3C[C@H](O)[C@H](C)[C@@H]2CC1 [Compound 23]
selectivity (percent ratio of the desired product:total products) [8]: 43%
conversion [8]: 37%
conversion [10]: 30%
